According to the supplement of paper PMC10307832:

Columns and labels:
Assay in all cases: relative viability (nuclei count vs DMSO), 5 days (fraction); higher = more cells survive
[1] = system: RERF-LC-KJ
Procedure, shortened: (§1)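 Relative viability was taken as the ratio of nuclei in treated wells to nuclei in vehicle wells. Lung cancer cell lines in 1536-well plates received compounds by pin tool one day after seeding, either one drug alone or a fixed anchor-drug dose plus five library-drug doses (not always all listed) in √10 steps. Nuclei were counted on 4× images after 5 days of treatment, and values are medians of duplicate plates.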

[2] = system: NCI-H596
Procedure, shortened: as §1

[3] = system: NCI-H1993
Procedure, shortened: as §1

[4] = system: NCI-H1651
Procedure, shortened: as §1

[5] = system: NCI-H2087
Procedure, shortened: as §1

[6] = system: HOP-62
Procedure, shortened: as §1

[7] = system: NCI-H650
Procedure, shortened: as §1

[8] = system: NCI-H2170
Procedure, shortened: as §1

[9] = system: LXF-289
Procedure, shortened: as §1

[10] = system: NCI-H2085
Procedure, shortened: as §1

[11] = system: NCI-H2342
Procedure, shortened: as §1

[12] = system: NCI-H1975
Procedure, shortened: as §1

[13] = system: PC-14
Procedure, shortened: as §1

[14] = system: NCI-H3122
Procedure, shortened: as §1

[15] = system: NCI-H647
Procedure, shortened: as §1

[16] = system: LCLC-103H
Procedure, shortened: as §1

[17] = system: CAL-12T
Procedure, shortened: as §1

[18] = system: A-427
Procedure, shortened: as §1

[19] = system: EPLC-272H
Procedure, shortened: as §1

[20] = system: NCI-H1395
Procedure, shortened: as §1

`CCCCCCCCCCCC1=C(O)C(=O)C=C(O)C1=O` [Embelin] + NC(=O)Nc1cc(-c2cccc(F)c2)sc1C(=O)N[C@H]1CCCNC1 [AZD7762] (partner 0.2 µM) was tested, and the relative viability ([1]; first compound 0.08 µM) was 1.02, the relative viability ([1]; first compound 0.8 µM) was 1.15 and the relative viability ([1]; first compound 2.53 µM) was 1.13. It also gave a relative viability ([1]; first compound 8 µM) of 1, a relative viability ([2]; first compound 0.08 µM) of 1.08 and a relative viability ([2]; first compound 0.8 µM) of 1.27. It also gave a relative viability ([2]; first compound 2.53 µM) of 1.26, a relative viability ([2]; first compound 8 µM) of 1.01 and a relative viability ([3]; first compound 0.08 µM) of 0.821. The relative viability ([3]; first compound 0.8 µM) was 0.723, the relative viability ([3]; first compound 2.53 µM) was 0.89 and the relative viability ([3]; first compound 8 µM) was 0.606. The relative viability ([4]; first compound 0.08 µM) was 0.452, the relative viability ([4]; first compound 0.8 µM) was 0.549 and the relative viability ([4]; first compound 2.53 µM) was 0.527. It also gave a relative viability ([4]; first compound 8 µM) of 0.46, a relative viability ([5]; first compound 0.08 µM) of 1.34 and a relative viability ([5]; first compound 0.8 µM) of 1.37. It also gave a relative viability ([5]; first compound 2.53 µM) of 1.2, a relative viability ([5]; first compound 8 µM) of 1.28 and a relative viability ([6]; first compound 0.08 µM) of 0.384. For the same molecule, the relative viability ([6]; first compound 0.8 µM) was 0.568, the relative viability ([6]; first compound 2.53 µM) was 0.734 and the relative viability ([6]; first compound 8 µM) was 0.363. For the same molecule, the relative viability ([7]; first compound 0.08 µM) was 0.889, the relative viability ([7]; first compound 0.8 µM) was 1.03 and the relative viability ([7]; first compound 2.53 µM) was 1.01. For the same molecule, the relative viability ([7]; first compound 8 µM) was 1.27, the relative viability ([8]; first compound 0.08 µM) was 0.906 and the relative viability ([8]; first compound 0.8 µM) was 0.958. For the same molecule, the relative viability ([8]; first compound 2.53 µM) was 1.06, the relative viability ([8]; first compound 8 µM) was 0.914 and the relative viability ([9]; first compound 0.08 µM) was 1.17. For the same molecule, the relative viability ([9]; first compound 0.8 µM) was 1.16, the relative viability ([9]; first compound 2.53 µM) was 1.14 and the relative viability ([9]; first compound 8 µM) was 1.2. The relative viability ([10]; first compound 0.08 µM) was 0.956, the relative viability ([10]; first compound 0.8 µM) was 1.09 and the relative viability ([10]; first compound 2.53 µM) was 0.93. It also gave a relative viability ([10]; first compound 8 µM) of 1.03, a relative viability ([11]; first compound 0.08 µM) of 0.47 and a relative viability ([11]; first compound 0.8 µM) of 0.514. For the same molecule, the relative viability ([11]; first compound 2.53 µM) was 0.546, the relative viability ([11]; first compound 8 µM) was 0.456 and the relative viability ([12]; first compound 0.08 µM) was 0.708. It also gave a relative viability ([12]; first compound 0.8 µM) of 0.753, a relative viability ([12]; first compound 2.53 µM) of 0.806 and a relative viability ([12]; first compound 8 µM) of 0.703. For the same molecule, the relative viability ([13]; first compound 0.08 µM) was 0.339, the relative viability ([13]; first compound 0.8 µM) was 0.419 and the relative viability ([13]; first compound 2.53 µM) was 0.345. For the same molecule, the relative viability ([13]; first compound 8 µM) was 0.258, the relative viability ([14]; first compound 0.08 µM) was 0.946 and the relative viability ([14]; first compound 0.8 µM) was 1.06. For the same molecule, the relative viability ([14]; first compound 2.53 µM) was 1.06, the relative viability ([14]; first compound 8 µM) was 1.01 and the relative viability ([15]; first compound 0.08 µM) was 0.379. The relative viability ([15]; first compound 0.8 µM) was 0.674, the relative viability ([15]; first compound 2.53 µM) was 0.365 and the relative viability ([15]; first compound 8 µM) was 0.309. For the same molecule, the relative viability ([16]; first compound 0.08 µM) was 0.79, the relative viability ([16]; first compound 0.8 µM) was 0.866 and the relative viability ([16]; first compound 2.53 µM) was 0.886. For the same molecule, the relative viability ([16]; first compound 8 µM) was 0.684, the relative viability ([17]; first compound 0.08 µM) was 0.641 and the relative viability ([17]; first compound 0.8 µM) was 0.697. It also gave a relative viability ([17]; first compound 2.53 µM) of 0.61, a relative viability ([17]; first compound 8 µM) of 0.676 and a relative viability ([18]; first compound 0.08 µM) of 0.75. The relative viability ([18]; first compound 0.8 µM) was 0.877, the relative viability ([18]; first compound 2.53 µM) was 0.737 and the relative viability ([18]; first compound 8 µM) was 0.452. The relative viability ([19]; first compound 0.08 µM) was 0.181, the relative viability ([19]; first compound 0.8 µM) was 0.296 and the relative viability ([19]; first compound 2.53 µM) was 0.21. The relative viability ([19]; first compound 8 µM) was 0.188, the relative viability ([20]; first compound 0.08 µM) was 0.434 and the relative viability ([20]; first compound 0.8 µM) was 0.425. It also gave a relative viability ([20]; first compound 2.53 µM) of 0.384 and a relative viability ([20]; first compound 8 µM) of 0.366.
